Source: US20010046987A1, “Oxazolidinones having a sulfoximine functionality” (priority 1999, published 2001)
Values after ≈ are worked out from the molar mass of the structure shown.

Tests used:
[1] = tested on: Streptococcus pneumoniae; assay: MIC by agar dilution, SPNE 9912; type: cell-based; settings: Streptococcus pneumoniae, strain SPNE 9912, read-out: Antibacterial Activity Minimum Inhibitory Concentration SPNE 9912
From the text: (§1) The in vitro activity of compounds of this invention can be assessed by standard testing procedures such as the determination of minimum inhibitory concentration (MIC) by agar dilution as described in “Approved Standard.

[2] = tested on: Enterococcus faecium; assay: MIC by agar dilution, EFAE 12712; type: cell-based; settings: Enterococcus faecium, strain EFAE 12712, read-out: Antibacterial Activity Minimum Inhibitory Concentration EFAE 12712
From the text: as §1

[3] = tested on: Moraxella catarrhalis; assay: MIC by agar dilution, MCAT 30607; type: cell-based; settings: Moraxella catarrhalis, strain MCAT 30607, read-out: Antibacterial Activity Minimum Inhibitory Concentration MCAT 30607
From the text: as §1

[4] = tested on: Staphylococcus aureus; assay: MIC by agar dilution, SAUR 9213; type: cell-based; settings: Staphylococcus aureus, strain SAUR 9213, read-out: Antibacterial Activity Minimum Inhibitory Concentration SAUR 9213
From the text: as §1

[5] = tested on: H. influenzae; assay: MIC by agar dilution, HINF 30063; type: cell-based; settings: Haemophilus influenzae, strain HINF 30063, read-out: Antibacterial Activity Minimum Inhibitory Concentration HINF 30063
From the text: as §1

[6] = tested on: Staphylococcus epidermidis; assay: MIC by agar dilution, SEPI 30593; type: cell-based; settings: Staphylococcus epidermidis, strain SEPI 30593, read-out: Antibacterial Activity Minimum Inhibitory Concentration SEPI 30593
From the text: as §1

[7] = tested on: Streptococcus pyogenes; assay: MIC by agar dilution, SPYO 152; type: cell-based; settings: Streptococcus pyogenes, strain SPYO 152, read-out: Antibacterial Activity Minimum Inhibitory Concentration SPYO 152
From the text: as §1

[8] = tested on: Enterococcus faecalis; assay: MIC by agar dilution, EFAE 9217; type: cell-based; settings: Enterococcus faecalis, strain EFAE 9217, read-out: Antibacterial Activity Minimum Inhibitory Concentration EFAE 9217
From the text: as §1

Compound	melting point	MIC [1] [µg/mL]	MIC [2] [µg/mL]	MIC [3] [µg/mL]	MIC [4] [µg/mL]	MIC [5] [µg/mL]	MIC [6] [µg/mL]	MIC [7] [µg/mL]	MIC [8] [µg/mL]
CCC(=S)NC[C@H]1CN(c2ccc([C@H]3CC[S@+2]([O-])([N-]C(N)=O)CC3)c(F)c2)C(=O)O1 [Example 22, N-({(5S)-3-[3-Fluoro-4-[1-[(aminocarbonyl)imino]-1-oxidohexahydro-1λ^4-thiopyran-4-yl]phenyl]-2-oxo-1,3-oxazolidin-5-yl}methyl)propanethioamide, Z-isomer]	236 to 238 °C (dec.)	0.125 (≈ 0.274 µM)	0.5 (≈ 1.1 µM)	2 (≈ 4.38 µM)	2 (≈ 4.38 µM)	4 (≈ 8.76 µM)	0.05 (≈ 0.11 µM)	0.5 (≈ 1.1 µM)	0.5 (≈ 1.1 µM)
C[N-][S+2]1([O-])CCC(c2ccc(N3CC(CNC(=S)C4CC4)OC3=O)cc2F)CC1 [Example 29, N-({(5S)-3-[3-Fluoro-4-[1-(methylimino)-1-oxidohexahydro-1λ^4-thiopyran-4-yl]phenyl]-2-oxo-1,3-oxazolidin-5-yl}methyl)cyclopropanecarbothioamide, Z-isomer]	201 to 202 °C (dec.)	0.25 (≈ 0.569 µM)	1 (≈ 2.27 µM)	2 (≈ 4.55 µM)	1 (≈ 2.27 µM)	4 (≈ 9.1 µM)	0.5 (≈ 1.14 µM)	0.5 (≈ 1.14 µM)	0.5 (≈ 1.14 µM)
CCC(=S)NCC1CN(c2ccc(C3CC[S+2]([O-])([N-]C(=O)Nc4ccc([N+](=O)[O-])cc4)CC3)c(F)c2)C(=O)O1 [Example 21, N-({(5S)-3-[3-Fluoro-4-(1-{[[(4-nitrophenyl)amino]carbonyl]imino}-1-oxidohexahydro-1λ^4-thiopyran-4-yl)phenyl]-2-oxo-1,3-oxazolidin-5-yl}methyl)propanethioamide, Z-isomer]	222 to 228 °C	< 0.06	0.25 (≈ 0.433 µM)	0.25 (≈ 0.433 µM)	0.5 (≈ 0.866 µM)	> 64	0.25 (≈ 0.433 µM)	0.125 (≈ 0.216 µM)	0.25 (≈ 0.433 µM)
CCC(=S)NCC1CN(c2ccc(C3CC[S+2]([O-])([N-]CCCc4ccccc4)CC3)c(F)c2)C(=O)O1 [Example 17, N-({(5S)-3-[3-Fluoro-4-[1-[(3-phenylpropyl)imino]-1-oxidohexahydro-1λ^4-thiopyran-4-yl]phenyl]-2-oxo-1,3-oxazolidin-5-yl}methyl)propanethioamide, Z-isomer]	165.5 to 167 °C	0.5 (≈ 0.94 µM)	2 (≈ 3.76 µM)	2 (≈ 3.76 µM)	2 (≈ 3.76 µM)	> 64	2 (≈ 3.76 µM)	1 (≈ 1.88 µM)	1 (≈ 1.88 µM)
N=S1(=O)CCN(c2ccc(N3C[C@H](CNC(=S)C4CC4)OC3=O)cc2F)CC1 [Example 3, N-({(5S)-3-[3-Fluoro-4-(1-imino-1-oxido-1λ^4,4-thiazinan-4-yl)phenyl]-2-oxo-1,3-oxazolidin-5-yl}methyl)cyclopropanecarbothioamide]	209 to 210 °C (dec.)	0.25 (≈ 0.586 µM)	0.5 (≈ 1.17 µM)	1 (≈ 2.34 µM)	1 (≈ 2.34 µM)	4 (≈ 9.38 µM)	0.25 (≈ 0.586 µM)	0.25 (≈ 0.586 µM)	1 (≈ 2.34 µM)
CCC(=S)NCC1CN(c2ccc(C3CC[S+2]([O-])([N-]C(=O)NC)CC3)c(F)c2)C(=O)O1 [Example 18, N-({(5S)-3-[3-Fluoro-4-(1-{[(methylamino)carbonyl]imino}-1-oxidohexahydro-1λ^4-thiopyran-4-yl)phenyl]-2-oxo-1,3-oxazolidin-5-yl}methyl)propanethioamide, Z-isomer]	203 to 204 °C	0.25 (≈ 0.531 µM)	1 (≈ 2.12 µM)	4 (≈ 8.5 µM)	2 (≈ 4.25 µM)	8 (≈ 17 µM)	1 (≈ 2.12 µM)	0.5 (≈ 1.06 µM)	1 (≈ 2.12 µM)
CCC(=S)NCC1CN(c2ccc(C3CC[S+2]([O-])([N-]Cc4ccccc4)CC3)c(F)c2)C(=O)O1 [Example 16, N-({(5S)-3-[3-Fluoro-4-[1-[(phenylmethyl)imino]-1-oxidohexahydro-1λ^4-thiopyran-4-yl]phenyl]-2-oxo-1,3-oxazolidin-5-yl}methyl)propanethioamide, Z-isomer]	207 to 208 °C	0.25 (≈ 0.496 µM)	1 (≈ 1.99 µM)	2 (≈ 3.97 µM)	2 (≈ 3.97 µM)	> 64	1 (≈ 1.99 µM)	0.5 (≈ 0.993 µM)	1 (≈ 1.99 µM)
CCC(=S)NC[C@H]1CN(c2ccc([C@H]3CC[S@+2]([O-])([N-]CC(N)=O)CC3)c(F)c2)C(=O)O1 [Example 23, N-({(5S)-3-[3-Fluoro-4-[1-[[(aminocarbonyl)methyl]imino]-1-oxidohexahydro-1λ^4-thiopyran-4-yl]phenyl]-2-oxo-1,3-oxazolidin-5-yl}methyl)propanethioamide, Z-isomer]	221 to 222 °C	0.25 (≈ 0.531 µM)	1 (≈ 2.12 µM)	4 (≈ 8.5 µM)	2 (≈ 4.25 µM)	4 (≈ 8.5 µM)	2 (≈ 4.25 µM)	0.5 (≈ 1.06 µM)	0.5 (≈ 1.06 µM)
